We go through one substance from paper PMC4725915, “Ruthenium(II) Complexes with 2-Phenylimidazo[4,5-f][1,10]phenanthroline Derivatives that Strongly Combat Cisplatin-Resistant Tumor Cells” (Scientific Reports, 2016).

The subject of assay [1] is A549R cells. The assay is described as follows: Intracellular ROS (DCFH-DA staining). The format is cell-based, human. The note with it: 0.5 μM, 12 h. On the procedure:
TrxR is a key enzyme in the regulation of the intracellular redox environment. However, cellular oxidative stress is known to trigger the initiation of apoptotic signaling, which results in cell death. Complex 4 was proven to inhibit the activity of TrxR and could induce severe oxidative stress in A549R cells. To assess the capacity of complex 4 to generate intracellular reactive oxygen species (ROS), A549R cells were treated with different concentrations of complex 4 for 12 h and stained with 2′,7′-dichlorofluorescein diacetate (DCFH-DA)[46]. DCFH-DA is an oxidation-sensitive dye that is specifically detected by measuring the enhanced green fluorescent intensity caused by intracellular ROS. This dye was used to quantify the generation of intracellular ROS. […] These findings were further confirmed with flow cytometric analyses (Fig. 5d).
The generation of reactive oxygen species (ROS) in A549R cells was measured using a ROS sensitive fluorescent probe, 2,7-dichlorodihydrofluorescein diacetate (DCFH-DA). […] The levels of intracellular ROS were examined with an inverted fluorescence microscope (Zeiss Axio Observer D1) and flow cytometry (FACSCanto II, BD Biosciences, USA). The excitation wavelength was 485 nm, and the fluorescence was measured at 530 nm. […]

A further assay concerns LO2. The assay is described as follows: MTT cytotoxicity assay, normal LO2 cells. The note with it: LO2 normal human cell line, 48 h. The format is cell-based. On the procedure: (§1) Compounds 1–4 were evaluated against three tumor cell lines derived from different tissues, including the cervix (HeLa), lung (A549) and cisplatin-resistant lung (A549R) tissues. For comparison, the cytotoxicity of cisplatin was also evaluated. As a control, the toxicities of the complexes were also tested against the normal human cell line (LO2).
(§2) The human cervix carcinoma cell line (HeLa), the lung carcinoma cell lines (A549 and A549R), and the human hepatocyte cell line (LO2) were obtained from the Experimental Animal Center at Sun Yat-Sen University (Guangzhou, China). The cells were maintained in Dulbecco’s modified Eagle’s medium (DMEM, Gibco BRL) or Roswell Park Memorial Institute 1640 (RPMI 1640, Gibco BRL) medium supplemented with 10% fetal bovine serum (FBS, Gibco BRL), 100 μg/mL streptomycin, and 100 U/mL penicillin (Gibco BRL) in a humidified incubator under 5% CO2 and 20% O2 at 37 °C. To maintain the resistant phenotype, A549R cells were incubated with 5 μM cisplatin and cultured in drug-free medium for at least a week before use.
(§3) The cytotoxicity of the ruthenium complexes and cisplatin were determined by an MTT assay. Briefly, cells were seeded into 96-well microtiter plates at 1 × 10^4 cells per well and grown overnight at 37 °C in a 5% CO2 incubator; then, different concentrations of the complexes in cell culture medium were added to the cultures. The plates were then incubated in an incubator for 48 h under the same conditions. The stock MTT dye solution (15 μL, 5 mg/mL) was added to each well. After 4 h of incubation, the cultures were removed and 150 μL of DMSO was added to each well. The optical density of each well was measured on a microplate spectrophotometer at a wavelength of 595 nm.

The test system of a further assay is HeLa. Description: MTT cytotoxicity assay, HeLa. Conditions: 48 h, mean ± SD of three experiments. The assay is classed as cell-based, human. On the procedure:
as §1, §2, §3
On the technique in general: Tetrazolium dyes change colour on reduction, which living cells bring about.

The next assay has as its system A549R. The assay is described as follows: MTT cytotoxicity assay, cisplatin-resistant A549R. The format is cell-based, human. Conditions: 48 h, mean ± SD of three experiments. As to the method:
as §1, §2, §3

Another assay relates to A549R MCTSs. Description: Growth inhibition of drug-treated MCTSs (size by imaging). Conditions: 1.0 and 2.0 μM. The assay is classed as cell-based, human. From the text: Traditional research on the efficacy of cancer drugs is usually performed in two-dimensional (2-D) cell cultures, which may not be a true indicator of the in vivo effectiveness of cancer treatments. This is in part due to the absence of cell-cell or cell-extracellular matrix interactions in 2-D cell models. Therefore, the development of cell culture models that can close the gap between conventional 2-D cell experiments and animal studies is necessary to study the cytotoxicity and anti-proliferative activities of drugs. Multicellular tumor spheroids (MCTSs) are heterogeneous cellular aggregates that have properties of solid tumors, such as nutrient and oxygen gradients, hypoxic/necrotic regions, cell-cell matrix interactions, and gene expression.
MCTSs were cultured using the liquid overlay method. A549R cells in the exponential growth phase were dissociated by a trypsin/EDTA solution to gain single-cell suspensions. A number of 3000 diluted A549R cells were transferred to 1.5% agarose-coated transparent 96-well plates with 200 μL of DMEM containing 10% serum. The single cells formed MCTS aggregates approximately 400 μm in diameter after three days with 5% CO2 and 20% O2 at 37 °C. […]

For another assay, the system named is A549. The assay is described as follows: MTT cytotoxicity assay, A549. The format is cell-based, human. The note with it: A549, 48 h, mean ± SD of three experiments. On the procedure:
as §1, §2, §3

In assay [2] the test system is A549R cells. The assay is described as follows: Mitochondrial membrane potential (JC-1). The format is cell-based, human. Conditions: different concentrations (0.5, 1.0, 2.0 μM), 24 h. The text has this:
Mitochondria are the principal organelles related to energy metabolism and ATP synthesis; consequently, resistance against chemotherapeutic drugs can often be traced to the mitochondria. […] Mitochondrial dysfunction is involved in apoptotic cell death, and the loss of mitochondrial membrane potential (MMP, ΔΨm) is a hallmark of mitochondrial dysfunction. […] Confocal microscopy and flow cytometry were used to confirm whether complex 4-induced apoptosis occurred by damaging mitochondria, and the cationic dye JC-1 was used as the MMP-sensitive probe.
A549R cells were cultured in 6-well tissue culture plates for 24 h and treated with complex 4 (0.5, 1.0 and 2.0 μM) for 24 h. After the treatment, the cells were collected and resuspended at 1 × 10^6 cells/mL in a pre-warmed staining working solution containing JC-1 (5 μg/mL) and incubated for 15 min at 37 °C. Subsequently, the cells were washed twice with pre-warmed PBS and analyzed immediately with a flow cytometer on a FACS Canto II (BD Biosciences, USA). Red and green mean fluorescence intensities were analyzed using FlowJo 7.6 software (Tree Star, OR, USA). […] After the treatment described above, the stained cells were visualized under an inverted fluorescence microscope (Zeiss Axio Observer D1). JC-1 fluorescence was measured with single excitation (488 nm) and dual emission (shift from green 530 nm to red 590 nm).

Turning to Ru(phen)(bzq)(tbtfpip)(PF6) [Complex 4], the “intracellular ROS levels” value in the assay on A549R cells [1] is “increase in ROS”. Besides, the IC50 with LO2 is 6.7 ± 2.4 µM; with HeLa, 2.4 ± 0.3 µM; with A549R it was 0.8 ± 0.1 µM; with A549 it was 1 ± 0.2 µM. Also, in the assay on A549R MCTSs, the “change in size of A549R MCTSs” value is reported as “decreased in size over time”. For the same substance, the “mitochondrial membrane potential (MMP)” value with A549R cells [2] is reported as “loss of MMP”.

By IC50 is commonly meant the concentration that gives 50% inhibition. A lower IC50 goes with inhibition by little substance.
